Measured values published in ChEMBL document CHEMBL1201862, “PubChem BioAssay data set” (2004).
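Protocol summary: plate cells (96-well), add compound at 5 concentrations, incubate 48 h, interpolate endpoints linearly. GI50 is the concentration that inhibits growth by half.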 Activity calls are given as the source filed them. Rule as the data show it: active = GI50 up to about 1.1 µM and inactive = higher.

Tests used:
Experiment in all cases: DTP human tumour cell line panel, 48 h
[1] = tested on: A549
[2] = tested on: HCC 2998
[3] = tested on: HL-60
[4] = tested on: K562
[5] = tested on: LOX IMVI
[6] = tested on: NCI-H226
[7] = tested on: NCI-H522
[8] = tested on: OVCAR-3
[9] = tested on: OVCAR-8
[10] = tested on: RXF 393
[11] = tested on: SF-268
[12] = tested on: SF-295
[13] = tested on: SF-539
[14] = tested on: SK-OV-3
[15] = tested on: SNB-75
[16] = tested on: UACC-257
[17] = tested on: UACC-62
[18] = tested on: UO-31
[19] = tested on: TK-10

Row | SMILES | GI50 [1] | GI50 [2] | GI50 [3] | GI50 [4] | GI50 [5] | GI50 [6] | GI50 [7] | GI50 [8] | GI50 [9] | GI50 [10] | GI50 [11] | GI50 [12] | GI50 [13] | GI50 [14] | GI50 [15] | GI50 [16] | GI50 [17] | GI50 [18] | GI50 [19]
1 | CSc1nc2c(ncn2C2OC(CO)C(O)C(O)C2O)c(=O)n1C (stereo unspecified) | > 100 µM (inactive) | > 100 µM (inactive) | > 100 µM (inactive) | > 100 µM (inactive) | > 100 µM (inactive) | > 100 µM (inactive) | > 100 µM (inactive) | > 100 µM (inactive) | > 100 µM (inactive) | > 100 µM (inactive) | > 100 µM (inactive) | > 100 µM (inactive) | > 100 µM (inactive) | > 100 µM (inactive) | > 100 µM (inactive) | > 100 µM (inactive) | > 100 µM (inactive) | > 100 µM (inactive) | 
2 | C[O+]=C1C=CC(=C2SC(c3ccccc3)(c3ccccc3)c3ccccc32)C=C1.[O-][Cl+3]([O-])([O-])[O-] | 22.5 µM (inactive) | 26.5 µM (inactive) | 17 µM (inactive) | 26.7 µM (inactive) | 18 µM (inactive) | 14.5 µM (inactive) | 20.7 µM (inactive) | 16.1 µM (inactive) | 32.1 µM (inactive) | 11.8 µM (inactive) | 29 µM (inactive) | 22.1 µM (inactive) | 18.7 µM (inactive) | 38 µM (inactive) | 26.9 µM (inactive) | 16.6 µM (inactive) | 18.7 µM (inactive) | 10 µM (inactive) | 23.4 µM (inactive)
3 | O=NN1C(c2ccccc2)C2CCCC(C2=O)C1c1ccccc1 (stereo unspecified) | 34 µM (inactive) | 16.6 µM (inactive) | 19.3 µM (inactive) | 21.1 µM (inactive) | 22.9 µM (inactive) | 25.1 µM (inactive) | 19.1 µM (inactive) | 4.82 µM (inactive) | 37.7 µM (inactive) | 18.9 µM (inactive) | 49.8 µM (inactive) | 30.8 µM (inactive) | 44.6 µM (inactive) | 24.5 µM (inactive) | 22.8 µM (inactive) | 24 µM (inactive) | 20.4 µM (inactive) | 22.9 µM (inactive) | 
4 | O=[N+]([O-])c1ccc(/C=C/c2ccc(/N=N/c3ccc(/C=C/c4ccc([N+](=O)[O-])cc4S(=O)(=O)O)c(S(=O)(=O)O)c3)cc2S(=O)(=O)O)c(S(=O)(=O)O)c1 | > 100 µM (inactive) | 43.6 µM (inactive) | > 100 µM (inactive) | > 100 µM (inactive) | > 100 µM (inactive) | > 100 µM (inactive) | > 100 µM (inactive) | > 87.5 µM (inactive) | > 100 µM (inactive) | > 100 µM (inactive) | > 100 µM (inactive) | > 100 µM (inactive) | > 100 µM (inactive) | > 100 µM (inactive) | 61.8 µM (inactive) | > 100 µM (inactive) | > 100 µM (inactive) | > 100 µM (inactive) | 
5 | Cc1cc(O)cc(O)c1/N=N/c1ccc([N+](=O)[O-])cc1 | 30.1 µM (inactive) | 10.4 µM (inactive) | 5.16 µM (inactive) | 3.27 µM (inactive) | 23.7 µM (inactive) |  | 3.48 µM (inactive) | > 100 µM (inactive) | 17.9 µM (inactive) | 10.6 µM (inactive) | 9.86 µM (inactive) | > 100 µM (inactive) | 29 µM (inactive) | > 100 µM (inactive) | 18.5 µM (inactive) | 25.1 µM (inactive) | 12.9 µM (inactive) | 25 µM (inactive) | 23.9 µM (inactive)
6 | Cc1cccc(-c2cc(=S)c3cc(N4CCCC4)ccc3[nH]2)c1 | > 100 µM (inactive) | > 100 µM (inactive) |  | > 100 µM (inactive) | > 100 µM (inactive) | > 100 µM (inactive) |  | > 100 µM (inactive) |  | > 100 µM (inactive) | > 100 µM (inactive) | > 100 µM (inactive) | > 100 µM (inactive) | > 100 µM (inactive) | > 100 µM (inactive) | > 100 µM (inactive) | > 100 µM (inactive) | > 100 µM (inactive) | > 100 µM (inactive)
7 | [N-]=[N+]=NC[C@H]1OCO[C@H](CN=[N+]=[N-])[C@H]2OCCOCCOc3ccccc3OCCOCCO[C@@H]21 | > 100 µM (inactive) | > 100 µM (inactive) | > 100 µM (inactive) | > 100 µM (inactive) | > 100 µM (inactive) | > 100 µM (inactive) | > 100 µM (inactive) | > 100 µM (inactive) | > 100 µM (inactive) | > 100 µM (inactive) | > 100 µM (inactive) | > 100 µM (inactive) | > 100 µM (inactive) | > 100 µM (inactive) | 76.4 µM (inactive) | > 100 µM (inactive) | > 100 µM (inactive) | 10.1 µM (inactive) | > 100 µM (inactive)
8 | CCOC(=O)NC(=O)c1cn(CCCCCCOC(=O)NCCCCCCNC(=O)OCCCCCCn2cc(C(=O)NC(=O)OCC)c(=O)[nH]c2=O)c(=O)[nH]c1=O | > 100 µM (inactive) | > 100 µM (inactive) | > 100 µM (inactive) | > 100 µM (inactive) | > 100 µM (inactive) | > 100 µM (inactive) | > 100 µM (inactive) | > 100 µM (inactive) | > 100 µM (inactive) | > 100 µM (inactive) | > 100 µM (inactive) | > 100 µM (inactive) | > 100 µM (inactive) | > 100 µM (inactive) | > 100 µM (inactive) | > 100 µM (inactive) | > 100 µM (inactive) | > 100 µM (inactive) | 
9 | COC(=O)c1c(-c2ccccc2)cc2c3cc(-c4ccccc4)c(C(=O)OC)n3c3ccccc3n12 | > 100 µM (inactive) | > 100 µM (inactive) | > 100 µM (inactive) | > 100 µM (inactive) | > 100 µM (inactive) | > 100 µM (inactive) | > 91 µM (inactive) | > 100 µM (inactive) | > 100 µM (inactive) | > 44.8 µM (inactive) | > 100 µM (inactive) | > 100 µM (inactive) | > 100 µM (inactive) | > 100 µM (inactive) | 20.1 µM (inactive) | > 100 µM (inactive) | > 100 µM (inactive) | > 100 µM (inactive) | > 100 µM (inactive)
10 | Cc1nc2nnc(CCCCCCCCc3nnc4nc(C)[nH]n34)n2[nH]1 | > 100 µM (inactive) | > 100 µM (inactive) | > 100 µM (inactive) | > 100 µM (inactive) | 47.4 µM (inactive) | > 100 µM (inactive) | 60.5 µM (inactive) | > 100 µM (inactive) | > 100 µM (inactive) | > 100 µM (inactive) | > 100 µM (inactive) | > 100 µM (inactive) | > 100 µM (inactive) | > 100 µM (inactive) | > 100 µM (inactive) | > 100 µM (inactive) |  | > 100 µM (inactive) | > 100 µM (inactive)
11 | Cc1c(N)nc(C2CC(=O)N2CC(N)C(N)=O)nc1C(=O)NC(C(=O)NC(C)C(O)C(C)C(=O)NC(C(=O)NCCc1nc(-c2nc(C(=O)NCCNCC(C)O)cs2)cs1)C(C)O)C(OC1OC(CO)C(O)C(O)C1OC1OC(CO)C(O)C(OC(N)=O)C1O)c1c[nH]cn1 (stereo unspecified) | 3.28 µM (inactive) | 21.9 µM (inactive) | 5.75 µM (inactive) | 20.1 µM (inactive) | 0.184 µM (active) | 0.0223 µM (active) | 0.462 µM (active) | 6.56 µM (inactive) | 3.36 µM (inactive) | 0.0344 µM (active) | 0.5 µM (active) | 0.167 µM (active) | < 0.0295 µM (active) | 8.41 µM (inactive) | 0.344 µM (active) | 0.528 µM (active) | 0.441 µM (active) | 0.813 µM (active) | 37.6 µM (inactive)
12 | Oc1ccc2ccccc2c1Cc1c(O)ccc2ccccc12 | 18.1 µM (inactive) | 17.4 µM (inactive) | 17.8 µM (inactive) | 8.83 µM (inactive) | 15.2 µM (inactive) | 20.9 µM (inactive) | 10.7 µM (inactive) | 11.2 µM (inactive) | 15.6 µM (inactive) | 16 µM (inactive) | 14 µM (inactive) | 16.7 µM (inactive) | 21.4 µM (inactive) | 17.5 µM (inactive) | 20.5 µM (inactive) | 19.5 µM (inactive) | 14 µM (inactive) | 15 µM (inactive) | 21 µM (inactive)
13 | CC(C)(C)c1ccc(OCCOCCOc2ccc(C(C)(C)C)cc2S(N)(=O)=O)c(S(N)(=O)=O)c1 | 35.8 µM (inactive) | > 100 µM (inactive) | 14.5 µM (inactive) | > 100 µM (inactive) | 23.7 µM (inactive) | 40.7 µM (inactive) |  | > 100 µM (inactive) | > 100 µM (inactive) | 20.2 µM (inactive) | 97.3 µM (inactive) | > 100 µM (inactive) | > 100 µM (inactive) | > 100 µM (inactive) | > 100 µM (inactive) | 45.6 µM (inactive) | 52.1 µM (inactive) | 5.85 µM (inactive) | > 100 µM (inactive)
14 | Cc1nc(C)c(C(=O)NNC(=O)c2ccccc2)cc1C(=O)NNC(=O)c1ccccc1 | > 100 µM (inactive) | > 100 µM (inactive) | > 100 µM (inactive) | > 100 µM (inactive) | > 100 µM (inactive) | > 100 µM (inactive) | > 100 µM (inactive) | > 100 µM (inactive) | > 100 µM (inactive) | > 100 µM (inactive) | > 100 µM (inactive) | > 100 µM (inactive) | > 100 µM (inactive) | > 100 µM (inactive) | > 10 µM (inactive) | > 100 µM (inactive) | > 100 µM (inactive) | > 100 µM (inactive) | > 100 µM (inactive)
